The source made the active and inactive calls. No cut-off for these calls is given here.
These compounds were tested against D-amino-acid oxidase (Sus scrofa, UniProt P00371) (assay: Inhibition of pig D-amino acid oxidase).
Chain of D-amino-acid oxidase (P00371 whole entry): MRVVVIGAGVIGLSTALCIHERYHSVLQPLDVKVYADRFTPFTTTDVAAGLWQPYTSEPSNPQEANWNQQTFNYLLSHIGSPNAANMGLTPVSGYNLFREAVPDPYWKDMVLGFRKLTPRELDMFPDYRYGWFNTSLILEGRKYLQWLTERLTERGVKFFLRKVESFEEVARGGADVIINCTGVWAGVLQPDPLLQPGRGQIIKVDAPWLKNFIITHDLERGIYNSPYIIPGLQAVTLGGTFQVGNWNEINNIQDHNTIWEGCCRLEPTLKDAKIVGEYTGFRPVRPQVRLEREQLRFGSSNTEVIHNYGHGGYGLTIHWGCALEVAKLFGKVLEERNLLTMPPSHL

Row | SMILES | IC50 [µM]
1 | NCc1cc(=O)[nH]o1 [MUSCIMOL] | > 100
2 | O=c1[nH]oc2ccc([N+](=O)[O-])cc12 | 2.95
3 | Cc1c(C[C@H](N)C(=O)O)o[nH]c1=O | > 100
4 | Cc1cccc2c(O)noc12 | > 100
5 | O=c1[nH]oc2cccc(C(F)(F)F)c12 | > 100
6 | O=c1[nH]oc2cc(C(F)(F)F)ccc12 | 5
7 | COc1noc2cc(Cl)ccc12 | > 100
8 | Oc1noc2c(F)c(C(F)(F)F)ccc12 | > 100

More lines, now with the values ahead:

Row | IC50 [µM] | SMILES
9 | 0.722 | O=[N+]([O-])c1ccc2c(O)noc2c1
10 | 2.57 | COc1ccc2c(O)noc2c1
11 | 7.82 | Oc1noc2cccc(F)c12
12 | > 100 | CCOc1ccc2c(O)noc2c1
13 | 1.88 | Oc1noc2ccccc12
14 | 1.51 | Oc1noc2ccc(I)cc12
15 | 23 | Oc1noc2c(F)cccc12
16 | 0.444 | Oc1noc2cc(F)ccc12
17 | 0.269 | Cc1ccc2c(O)noc2c1
18 | 0.188 | Oc1noc2cc(Cl)ccc12
19 | 0.599 | Oc1noc2ccc(Br)cc12

The compounds below were run on Rattus norvegicus (assay: Increase in D-serine level in Sprague-Dawley rat plasma at 30 mg/kg, po coadministered with D-serine).
Assay type: functional, organism-based
Set-up: dose 30 mg/kg

Row | SMILES | Activity
20 | Oc1noc2cc(Cl)ccc12 | Active

The compounds below were run on Rattus norvegicus (assay: Increase in D-serine level in Sprague-Dawley rat prefrontal cortex at 30 mg/kg, po coadministered with D-serine).
Assay type: functional

Row | SMILES | Activity [%]
21 | Oc1noc2cc(Cl)ccc12 | >60

The compounds below were run on Rattus norvegicus (assay: Increase in D-serine level in Sprague-Dawley rat prefrontal cortex at 30 mg/kg, po).
Assay type: functional, organism-based
Set-up: dose 30 mg/kg

Row | SMILES | Activity
22 | Oc1noc2cc(Cl)ccc12 | inactive
